How the values were obtained:
Type in all cases: in vivo
[1] = test system: Empoasca vitis L2/L3 larvae; assay: Lab trial in Petri dishes, leaf dipped in suspension; details: 75 ml/L
Experimental: Composition used for insect control: Suspension of Beauveria bassiana CNCM I-2961 spores prepared in Tween 80. Total CFU count = 1.0 x 10^8 CFU/ml Trial method: Lab trial in Petri dishes, 10 replicates, 5 L2&L3 larvae /replicate Leaf dipped in prepared suspension of treatment, let dried and set up on agar agar Incubation in climatic room at +20°C, dead adults removed and incubated for sporulation on cadaver: assessment at 18 DAA Assessment of mortality percentage of Empoasca vitis L2/L3 larvae at 7 DAA, 10DAA. Comparative control: Lambda cyhalothrin Table 5: Efficacy of Beauveria bassiana CNCM I-2961 on Empoasca vitis L2/L3 larvae

[2] = test system: Bactrocera oleae adults; assay: Lab trial in plastic containers, flies dipped in test solution; details: 75 ml/L
Experimental: Composition used for insect control: Suspension of Beauveria bassiana CNCM I-2960 spores prepared in Tween 80. Total CFU count = 9.5 x 10^7 CFU/ml Trial method: Lab trial in plastic containers, 5 replicates, 10 adults /replicate Flies dipped in test solution Incubation in climatic room at +25°C Assessment of mortality percentage of Bactrocera oleae adults at 10DAT. DAT = Days after Treatment Comparative control: Lambda-cyhalothrin Table 7: Efficacy of Beauveria bassiana CNCM I-2960 on Bactrocera oleae adults

[3] = test system: Empoasca vitis adults; assay: Lab trial in Petri dishes, leaf dipped in suspension; details: 75 ml/L
Experimental: Composition used for insect control: Suspension of Beauveria bassiana CNCM I-2960 spores prepared in Tween 80. Total CFU count = 8.2 x 10^7 CFU/ml Suspension of Beauveria bassiana CNCM I-2961 spores prepared in Tween 80. Total CFU count = 1.1 x 10^8 CFU/ml Trial method: Lab trial in Petri dishes, 5 replicates, 10 nymphs/replicate Leaf dipped in prepared suspension of treatment, let dried and set up on agar agar Incubation in climatic room at +20 C, dead adults removed and incubated for sporulation on cadaver: assessment at 15 DAA Assessment of mortality percentage of Empoasca vitis adults at 7 DAA, 11DAA. Comparative control: Lambda cyhalothrin Table 4: Efficacy of Beauveria bassiana CNCM I-2961 and Beauveria bassiana CNCM I-2960 on Empoasca vitis adults

[4] = test system: Halyomorpha halys eggs; assay: Lab trial in Petri dishes, suspension sprayed on eggs; details: 0.5 ml/L
Experimental: Composition used for insect control: Suspension of Beauveria bassiana CNCM I-2960 spores prepared in Tween 80. Total CFU count = 1 x 10^6 CFU/ml, 1 x 10^7 CFU/ml and 1 x 10^8 CFU/ml Suspension of Beauveria bassiana CNCM I-2961 spores prepared in Tween 80. Total CFU count = 1 x 10^6 CFU/ml, 1 x 10^7 CFU/ml and 1 x 10^8 CFU/ml Trial method: Lab trial in Petri dishes, 5 replicates, 10 nymphs/replicate Suspension sprayed on eggs with equivalent volume of 1000 L/ha Incubation in climatic room at +25°C Assessment of mortality percentage of Halyomorpha halys Nymphs from treated eggs at 6 DAH, 9DAH, 13 DAH and 17 DAH. DAH = Days after hatching Comparative control: Acetamiprid Table 3: Efficacy of Beauveria bassiana CNCM-2961 and Beauveria bassiana CNCM I-2960 on Halyomorpha halys nymphs from treated eggs

[5] = test system: Halyomorpha halys Nymphs; assay: Lab trial in Petri dishes, suspension applied on nymphs + spray on beans; details: 0.5 ml/L
Experimental: Composition used for insect control: Suspension of Beauveria bassiana CNCM I-2960 spores prepared in Tween 80. Total CFU count = 1 x 10^8 CFU/ml Trial method: Lab trial in Petri dishes, 10 replicates, 5 nymphs/replicate Suspension applied on nymphs + spray on beans Incubation in climatic room at +25°C Assessment of mortality percentage of Halyomorpha halys Nymphs at 10 DAA Comparative control: Acetamiprid Table 2: Efficacy of Beauveria bassiana CNCM I-2960 on Halyomorpha halys Nymphs

[6] = test system: Dysaphis plantaginea adults; assay: Lab trial in Petri dishes, leaf disc dipped in suspension; details: 0.14 kg/ha
Experimental: Composition used for insect control: Suspension of Beauveria bassiana CNCM I-2961 spores prepared in Tween 80. Total CFU count = 1.2 x 10^8 CFU/ml Trial method: Lab trial in Petri dishes, 10 replicates, 5 adults/replicate Leaf disc dipped in prepared suspension of treatment, let dried and set up on agar agar Incubation in climatic room at +21°C, dead adults removed and incubated for sporulation on cadaver: assessment at 17 DAA Assessment of mortality percentage of Dysaphis plantaginea adults at 8 DAA, 10 DAA DAA = Days after application Comparative control: Flonicamid Table 1: Efficacy of Beauveria bassiana CNCM I-2961 on Dysaphis plantaginea adults

## CC1(C)[C@H](C(=O)O[C@H](C#N)c2cccc(Oc3ccccc3)c2)[C@@H]1/C=C(\Cl)C(F)(F)F (racemic) [Lambda cyhalothrin]
[1]; 7 DAA
  Mortality percentage of Empoasca vitis larvae at 7 DAA: 65%
[1]; 10 DAA
  Mortality percentage of Empoasca vitis larvae at 10 DAA: 91%
[2]
  Mortality percentage of Bactrocera oleae adults at 10 DAA: 100%
[3]; 7 DAA
  Mortality percentage of Empoasca vitis adults at 7 DAA: 83%
[3]; 11 DAA
  Mortality percentage of Empoasca vitis adults at 11 DAA: 100%

## C/C(=N\C#N)N(C)Cc1ccc(Cl)nc1 [Acetamiprid]
[4]; 6 DAH
  Mortality percentage of Halyomorpha halys nymphs from treated eggs at 6 DAH: 0%
[4]; 9 DAH
  Mortality percentage of Halyomorpha halys nymphs from treated eggs at 9 DAH: 7%
[4]; 13 DAH
  Mortality percentage of Halyomorpha halys nymphs from treated eggs at 13 DAH: 12%
[4]; 17 DAH
  Mortality percentage of Halyomorpha halys nymphs from treated eggs at 17 DAH: 22%
[5]
  Mortality percentage of Halyomorpha halys Nymphs at 10 DAA: 100%

## N#CCNC(=O)c1cnccc1C(F)(F)F [Flonicamid]
[6]; 8 DAA
  Mortality percentage of Dysaphis plantaginea adults at 8 DAA: 100%
[6]; 10 DAA
  Mortality percentage of Dysaphis plantaginea adults at 10 DAA: 100%

From EP4656049A1, “A METHOD OF CONTROLLING INSECT PESTS” (UPL Mauritius Limited, priority 2024, dated 2025)
